Some test systems named below: NCI-H226 lung; HCT-116 colon; UO-31 renal; SK-MEL-5 melanoma; 786-0 renal; RPMI-8226 leukemia; SNB-75 CNS; SF-268 CNS; SF-295 CNS; DU-145 prostate.
Assay in all cases: growth of human tumour cells (NCI), 48 h

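Step 1: Grow cells in 96-well plates. Step 2: Expose to compound for 48 hours at 5 concentrations. Step 3: Interpolate endpoints linearly; if unreached, use highest concentration. At the GI50, growth is halved. Definition used: TGI = concentration required for complete inhibition of growth.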

`CCOC(=O)C(=O)Nc1c(N(CC)CC)n2ccccc2nc1=O`: the TGI with NCI-H226 lung, in the test on HCT-116 colon, in the test on UO-31 renal, in the test on SK-MEL-5 melanoma, with 786-0 renal and with RPMI-8226 leukemia was over 100 µM throughout. Further, the TGI in the test with SNB-75 CNS and in the test with SF-268 CNS was over 100 µM in each case.
With `COc1ccc(/C=C2/C[N+](C)(C)C/C(=C/c3ccc(OC)cc3)C2=O)cc1`, the TGI with NCI-H226 lung is over 100 µM; with HCT-116 colon, over 100 µM; in the test with UO-31 renal, over 100 µM; in the test with SF-295 CNS, over 100 µM; with SK-MEL-5 melanoma, over 72 µM; in the test on 786-0 renal, over 100 µM. The results for the TGI with RPMI-8226 leukemia, in the test on SNB-75 CNS and with SF-268 CNS were 31.1 µM, over 100 µM and over 94.4 µM, respectively.
`O=S1(=O)C[C@@H](O)[C@H](O)CS1`: the TGI in the test on NCI-H226 lung, in the test with HCT-116 colon, with UO-31 renal, with SF-295 CNS, in the test on SK-MEL-5 melanoma and with 786-0 renal was over 100 µM in each case. The TGI in the test with RPMI-8226 leukemia, in the test with SNB-75 CNS and in the test on SF-268 CNS was over 100 µM in each case.
Turning to `O=C(O)c1cc2c(cn1)[nH]c1ccccc12`, the TGI in the test on NCI-H226 lung, in the test on HCT-116 colon, in the test with UO-31 renal, in the test on SF-295 CNS, in the test with SK-MEL-5 melanoma and in the test with 786-0 renal was over 100 µM throughout. The TGI with RPMI-8226 leukemia, in the test on SNB-75 CNS and with SF-268 CNS was over 100 µM throughout.
For `COC(=O)c1nc(NC#N)[nH]c(=O)c1C`, the TGI in the test with HCT-116 colon is over 100 µM; with UO-31 renal, over 84.2 µM; in the test with SF-295 CNS, over 100 µM; in the test on SK-MEL-5 melanoma, over 100 µM; with 786-0 renal it was over 100 µM; with RPMI-8226 leukemia, over 100 µM. Besides, the TGI in the test on SNB-75 CNS was over 95.4 µM; in the test with SF-268 CNS it was over 100 µM.
As to `O=C(c1ccccc1)c1c(C(=O)c2ccccc2)c(-c2ccccc2)c2c(-c3ccccc3)sc(-c3ccccc3)c2c1-c1ccccc1`, the TGI in the test on NCI-H226 lung, with HCT-116 colon, with UO-31 renal, with SF-295 CNS, in the test with SK-MEL-5 melanoma and with 786-0 renal was over 100 µM each time. For the same molecule, the TGI in the test with RPMI-8226 leukemia, with SNB-75 CNS and in the test on SF-268 CNS was over 100 µM each time.
With `Nc1c(-c2nc3ccccc3[nH]2)sc(=S)n1-c1ccccc1`, the TGI with NCI-H226 lung, in the test on HCT-116 colon, with UO-31 renal, in the test on SF-295 CNS, in the test with SK-MEL-5 melanoma and in the test on 786-0 renal was over 100 µM throughout. Moreover, the TGI with RPMI-8226 leukemia, in the test with SNB-75 CNS and in the test with SF-268 CNS was over 100 µM throughout.
For the molecule `CCOC(=O)C(C)c1cc(C2(C)OCCO2)c(C)o1` (centres undefined), the TGI with HCT-116 colon, with UO-31 renal, in the test with SF-295 CNS, in the test with SK-MEL-5 melanoma, in the test with 786-0 renal and in the test on RPMI-8226 leukemia was over 100 µM throughout. Moreover, the TGI in the test with SNB-75 CNS and in the test on SF-268 CNS was over 100 µM in each case.
In the case of `O=C(Nc1ccc(Cl)cc1)c1cc2ccccc2cc1O`, the GI50 with NCI-H226 lung is 2.59 µM; with HCT-116 colon, 2.19 µM; with UO-31 renal, 2.03 µM; in the test on SF-295 CNS, 2.96 µM; with SK-MEL-5 melanoma, 1.84 µM; with DU-145 prostate it was 3.18 µM. Also, the GI50 was 3.81 µM with 786-0 renal, 22.2 µM in the test on SNB-75 CNS and 3.68 µM in the test on SF-268 CNS. For the same molecule, the TGI in the test with NCI-H226 lung was 82.2 µM; in the test on HCT-116 colon, 16.5 µM; in the test with UO-31 renal, over 100 µM; in the test with SF-295 CNS, over 100 µM; in the test with SK-MEL-5 melanoma, 5.51 µM; in the test on DU-145 prostate, over 100 µM. For the same molecule, the TGI in the test with 786-0 renal, in the test with SNB-75 CNS and in the test on SF-268 CNS was over 100 µM in each case.
For the molecule `Cc1c2cc[nH]c(=O)c2cc2c(=O)c3cnccc3[nH]c12`, the TGI in the test with NCI-H226 lung, in the test on HCT-116 colon, in the test with UO-31 renal, in the test with SF-295 CNS, in the test with SK-MEL-5 melanoma and in the test on 786-0 renal was over 100 µM throughout. The TGI with RPMI-8226 leukemia, in the test on SNB-75 CNS and in the test with SF-268 CNS was over 100 µM throughout.
Take `N.N.NC(CS)C(=O)[O-].NC(CS)C(=O)[O-].[Pt+4]` (centres undefined): the GI50 in the test with NCI-H226 lung is over 50 µM; in the test with HCT-116 colon, over 50 µM; in the test on UO-31 renal, over 5 µM; in the test with SF-295 CNS it was over 50 µM; in the test with SK-MEL-5 melanoma, over 50 µM; in the test on 786-0 renal, over 50 µM. In addition, the GI50 with RPMI-8226 leukemia, in the test on SNB-75 CNS and with SF-268 CNS was over 50 µM each time. The TGI is over 50 µM with NCI-H226 lung; over 50 µM in the test with HCT-116 colon; over 5 µM with UO-31 renal; over 50 µM with SF-295 CNS; over 50 µM in the test on SK-MEL-5 melanoma; over 50 µM with 786-0 renal. Also, the TGI with RPMI-8226 leukemia, in the test with SNB-75 CNS and in the test with SF-268 CNS was over 50 µM each time.
For the molecule `COc1ccc2[nH]c(Cl)c(/C=C3/C(=O)N(C)c4ccccc43)c2c1`, the GI50 is 29.4 µM in the test on NCI-H226 lung; 42.5 µM with HCT-116 colon; over 100 µM in the test on UO-31 renal; over 100 µM in the test on SF-295 CNS; 69.3 µM in the test on SK-MEL-5 melanoma; over 100 µM in the test on 786-0 renal. Further, the GI50 with RPMI-8226 leukemia and in the test with SF-268 CNS was over 100 µM throughout. The TGI in the test on NCI-H226 lung, in the test with HCT-116 colon, in the test on UO-31 renal, in the test on SF-295 CNS, with SK-MEL-5 melanoma and in the test with 786-0 renal was over 100 µM throughout. Moreover, the TGI in the test on RPMI-8226 leukemia and with SF-268 CNS was over 100 µM each time.
In the case of `O=C1OC2(c3ccccc3Oc3ccccc32)c2ccccc21`, the TGI with NCI-H226 lung, in the test on HCT-116 colon, in the test on UO-31 renal, in the test on SF-295 CNS, in the test with SK-MEL-5 melanoma and in the test with 786-0 renal was over 100 µM each time. The TGI in the test on RPMI-8226 leukemia, with SNB-75 CNS and with SF-268 CNS was over 100 µM in each case.

Source of the values: PubChem BioAssay (NCI).
